Measured values published in US12473339B2, “Acylated glucagon analogues” (Zealand Pharma A/S, priority 2013, dated 2025).
*1 amine or outer side, *2 acyl side, *3 side chain or, on linkers, in order; H or OH if unused. Where a SMILES comes first, the peptide text is derived from it. Side-chain parts run from the residue outwards. [ ]: non-standard residue; d: D form. The star is where a group is joined. C18 diacid = O=C(O)CCCCCCCCCCCCCCCCC(=O)*; γGlu = O=C(O)[C@H](CCC(=O)[*:2])N[*:1]; AEEA = NCCOCCOCC(=O)O; Aib = CC(C)(N)C(=O)O

Target: T1, human glucagon-like peptide 1 receptor (GLP-1R) (Homo sapiens, UniProt P43220)
T1 construct: expressed in transfected cells
Experiment: GLP-1 receptor efficacy assay (cAMP AlphaScreen, CHO cells)
Assay type: cell-based
Conditions: for Ratio GLP-1/Glucagon: EC50 [GLP-1R] / EC50 [Glucagon-R], human receptors in CHO-K1
Text: The cDNA encoding either the human glucagon receptor (Glucagon-R) (primary accession number P47871) or the human glucagon-like peptide 1 receptor (GLP-1R) (primary accession number P43220) were synthesized and cloned into a mammalian expression vector containing a Zeocin resistance marker.
The mammalian expression vectors encoding the Glucagon-R or the GLP-1-R were transfected into Chinese hamster ovary (CHO) cells by the Attractene method. Stably expressing clones were obtained by Zeocin selection (250 μg/mL) upon limited dilution of cells resistant to the selection pressure. Glucagon-R and GLP-1-R cell clones expressing were picked, propagated and tested in the Glucagon-R and GLP-1-R efficacy assays as described below. One Glucagon-R expressing clone and one GLP-1-R expressing clone were chosen for compound profiling.
CHO cells expressing the human Glucagon-R, or human GLP-1-R were seeded 24 hours prior to the assay at 30,000 cells per well in 96-well microtiter plates in culture in 100 μl growth medium. On the day of analysis, growth medium was removed and the cells were washed once with 200 μl of assay buffer (Krebs-Ringer-buffer—KRBH). The buffer was removed and the cells were incubated for 15 min at room temperature in 10 μl KRBH (KRBH+10 mM HEPES, 5 mM NaHCO3, 0.1% (V/V) BSA) with 0.1 mM IBMX in deionized water containing increasing concentrations of test peptides. The reaction was stopped by the addition of lysis buffer (0.1% w/v BSA, 5 mM HEPES, 0.3% v/v Tween-20). After cell lysis for 10 min at room temperature, lysates were transferred to 384-well plates and 10 μl of acceptor/donorbead mixture as contained in the AlphaScreen™ cAMP Functional Assay Kit was added. After one hour of incubation at room temperature in the dark, the cAMP content was determined applying the AlphaScreen™ cAMP Functional Assay Kit from Perkin-Elmer according to manufacturer instructions. EC50 and relative efficacies compared to reference compounds (glucagon and GLP-1) were calculated applying computer aided curve fitting. The GLP-1/glucagon ratio is calculated as defined earlier.

T1 sequence (P43220 24-463): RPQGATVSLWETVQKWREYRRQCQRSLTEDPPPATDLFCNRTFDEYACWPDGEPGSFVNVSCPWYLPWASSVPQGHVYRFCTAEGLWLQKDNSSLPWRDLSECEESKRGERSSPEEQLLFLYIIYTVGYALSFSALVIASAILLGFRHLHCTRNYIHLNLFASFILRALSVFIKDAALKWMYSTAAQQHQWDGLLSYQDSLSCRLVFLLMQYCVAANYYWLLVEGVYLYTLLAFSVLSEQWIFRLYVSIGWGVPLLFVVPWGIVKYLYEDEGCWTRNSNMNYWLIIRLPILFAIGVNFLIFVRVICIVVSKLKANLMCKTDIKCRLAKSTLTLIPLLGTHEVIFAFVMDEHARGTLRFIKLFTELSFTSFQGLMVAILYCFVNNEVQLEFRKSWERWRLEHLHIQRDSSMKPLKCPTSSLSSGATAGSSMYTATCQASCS

Row | Structure (SMILES) | Ratio GLP-1/Glucagon | EC50 (cAMP formation, CHO cells expressing human GLP-1-R, 15 min, read-out: EC50 hGLP-1R CHO-K1)
1 | CC[C@H](C)[C@H](NC(=O)[C@H](Cc1ccccc1)NC(=O)[C@H](CC(=O)O)NC(=O)[C@H](Cc1c[nH]cn1)NC(=O)[C@H](C)NC(=O)[C@H](C)NC(=O)[C@H](CCCNC(=N)N)NC(=O)[C@H](CCCCNC(=O)COCCOCCNC(=O)COCCOCCNC(=O)CC[C@H](NC(=O)CCCCCCCCCCCCCCCCC(=O)O)C(=O)O)NC(=O)[C@H](CCC(=O)O)NC(=O)[C@H](CC(C)C)NC(=O)[C@H](Cc1ccc(O)cc1)NC(=O)[C@H](CCCCN)NC(=O)[C@H](CO)NC(=O)[C@H](Cc1ccc(O)cc1)NC(=O)[C@H](CC(=O)O)NC(=O)[C@H](CO)NC(=O)[C@@H](NC(=O)[C@H](Cc1ccccc1)NC(=O)[C@@H](NC(=O)CNC(=O)[C@H](CCC(N)=O)NC(=O)C(C)(C)NC(=O)[C@@H](N)Cc1c[nH]cn1)[C@@H](C)O)[C@@H](C)O)C(=O)N[C@@H](CCC(=O)O)C(=O)N[C@@H](Cc1c[nH]c2ccccc12)C(=O)N[C@@H](CC(C)C)C(=O)N[C@@H](CCC(=O)O)C(=O)N[C@@H](CO)C(=O)N[C@@H](C)C(N)=O [Compound 8, H-H-Aib-QGTFTSDYSKYLE-K([17-carboxy-heptadecanoyl]-isoGlu-Peg3-Peg3)-RAAHDFIEWLESA-NH2] (H-H[Aib]QGTFTSDYSKYLEK([AEEA-AEEA-γGlu-C18 diacid])RAAHDFIEWLESA-NH2) | 2.58 | 
2 | CC[C@H](C)[C@H](NC(=O)[C@H](Cc1ccccc1)NC(=O)[C@H](CC(=O)O)NC(=O)[C@H](CCCCN)NC(=O)[C@H](C)NC(=O)[C@H](C)NC(=O)[C@H](CCCNC(=N)N)NC(=O)[C@H](CCC(=O)O)NC(=O)[C@H](CC(=O)O)NC(=O)[C@H](CC(C)C)NC(=O)[C@H](Cc1ccc(O)cc1)NC(=O)[C@H](CCCCN)NC(=O)[C@H](CO)NC(=O)[C@H](Cc1ccc(O)cc1)NC(=O)[C@H](CC(=O)O)NC(=O)[C@H](CO)NC(=O)[C@@H](NC(=O)[C@H](Cc1ccccc1)NC(=O)[C@@H](NC(=O)CNC(=O)[C@H](CCC(N)=O)NC(=O)C1(NC(=O)[C@@H](N)Cc2c[nH]cn2)CCC1)[C@@H](C)O)[C@@H](C)O)C(=O)N[C@@H](CCC(=O)O)C(=O)N[C@@H](Cc1c[nH]c2ccccc12)C(=O)N[C@@H](CC(C)C)C(=O)N[C@@H](CCC(=O)O)C(=O)N[C@@H](CCCCNC(=O)CNC(=O)CNC(=O)[C@H](CO)NC(=O)CNC(=O)[C@H](CO)NC(=O)CNC(=O)CC[C@H](NC(=O)CCCCCCCCCCCCCCCCC(=O)O)C(=O)O)C(=O)N[C@@H](C)C(N)=O [Compound 15] | 0.65 | 
3 | CC[C@H](C)[C@H](NC(=O)[C@H](Cc1ccccc1)NC(=O)[C@H](CC(=O)O)NC(=O)[C@H](CCCCN)NC(=O)[C@H](C)NC(=O)[C@H](C)NC(=O)[C@H](CCCCNC(=O)CC[C@H](NC(=O)CCCCCCCCCCCCCCCCC(=O)O)C(=O)O)NC(=O)[C@H](CCC(=O)O)NC(=O)[C@H](CC(=O)O)NC(=O)[C@H](CC(C)C)NC(=O)[C@H](Cc1ccc(O)cc1)NC(=O)[C@H](CCCCN)NC(=O)[C@H](CO)NC(=O)[C@H](Cc1ccc(O)cc1)NC(=O)[C@H](CC(=O)O)NC(=O)[C@H](CO)NC(=O)[C@@H](NC(=O)[C@H](Cc1ccccc1)NC(=O)[C@@H](NC(=O)CNC(=O)[C@H](CCC(N)=O)NC(=O)C1(NC(=O)[C@@H](N)Cc2c[nH]cn2)CCC1)[C@@H](C)O)[C@@H](C)O)C(=O)N[C@@H](CCC(=O)O)C(=O)N[C@@H](Cc1c[nH]c2ccccc12)C(=O)N[C@@H](CC(C)C)C(=O)N[C@@H](CCC(=O)O)C(=O)N[C@@H](CO)C(=O)N[C@@H](C)C(N)=O [Compound 11, H-H-Ac4c-QGTFTSDYSKYLDE-K([17-carboxy-heptadecanoyl]-isoGlu)-AAKDFIEWLESA-NH2] | 2.00 | 

Next, values leading:

Row | Ratio GLP-1/Glucagon | EC50 (cAMP formation, CHO cells expressing human GLP-1-R, 15 min, read-out: EC50 hGLP-1R CHO-K1) | Structure (SMILES)
4 | 3.25 |  | CC[C@H](C)[C@H](NC(=O)[C@H](Cc1ccccc1)NC(=O)[C@H](CC(=O)O)NC(=O)[C@H](CCCCN)NC(=O)[C@H](C)NC(=O)[C@H](C)NC(=O)[C@H](CCCNC(=N)N)NC(=O)[C@H](CCCCNC(=O)CNC(=O)CNC(=O)[C@H](CO)NC(=O)CNC(=O)[C@H](CO)NC(=O)CNC(=O)CC[C@H](NC(=O)CCCCCCCCCCCCCCCCC(=O)O)C(=O)O)NC(=O)[C@H](CCC(=O)O)NC(=O)[C@H](CC(C)C)NC(=O)[C@H](Cc1ccc(O)cc1)NC(=O)[C@H](CCCCN)NC(=O)[C@H](CO)NC(=O)[C@H](Cc1ccc(O)cc1)NC(=O)[C@H](CC(=O)O)NC(=O)[C@H](CO)NC(=O)[C@@H](NC(=O)[C@H](Cc1ccccc1)NC(=O)[C@@H](NC(=O)CNC(=O)[C@H](CCC(N)=O)NC(=O)C(C)(C)NC(=O)[C@@H](N)Cc1c[nH]cn1)[C@@H](C)O)[C@@H](C)O)C(=O)N[C@@H](CCC(=O)O)C(=O)N[C@@H](Cc1c[nH]c2ccccc12)C(=O)N[C@@H](CC(C)C)C(=O)N[C@@H](CCC(=O)O)C(=O)N[C@@H](CO)C(=O)N[C@@H](C)C(N)=O [Compound 6, H-H-Aib-QGTFTSDYSKYLE-K([17-carboxy-heptadecanoyl]-isoGlu-GSGSGG)-RAAKDFIEWLESA-NH2]
5 | 0.63 |  | CC[C@H](C)[C@H](NC(=O)[C@H](Cc1ccccc1)NC(=O)[C@H](CC(=O)O)NC(=O)[C@H](CCCCN)NC(=O)[C@H](C)NC(=O)[C@H](C)NC(=O)[C@H](CCCNC(=N)N)NC(=O)[C@H](CCC(=O)O)NC(=O)[C@H](CC(=O)O)NC(=O)[C@H](CC(C)C)NC(=O)[C@H](Cc1ccc(O)cc1)NC(=O)[C@H](CCCCN)NC(=O)[C@H](CO)NC(=O)[C@H](Cc1ccc(O)cc1)NC(=O)[C@H](CC(=O)O)NC(=O)[C@H](CO)NC(=O)[C@@H](NC(=O)[C@H](Cc1ccccc1)NC(=O)[C@@H](NC(=O)CNC(=O)[C@H](CCC(N)=O)NC(=O)C1(NC(=O)[C@@H](N)Cc2c[nH]cn2)CCC1)[C@@H](C)O)[C@@H](C)O)C(=O)N[C@@H](CCCCNC(=O)CNC(=O)CNC(=O)[C@H](CO)NC(=O)CNC(=O)[C@H](CO)NC(=O)CNC(=O)CC[C@H](NC(=O)CCCCCCCCCCCCCCCCC(=O)O)C(=O)O)C(=O)N[C@@H](Cc1c[nH]c2ccccc12)C(=O)N[C@@H](CC(C)C)C(=O)N[C@@H](CCC(=O)O)C(=O)N[C@@H](CO)C(=O)N[C@@H](C)C(N)=O [Compound 13]
6 | 8.82 | 0.97 nM | CC[C@H](C)[C@H](NC(=O)[C@H](Cc1ccccc1)NC(=O)[C@H](CC(=O)O)NC(=O)[C@H](CCCCN)NC(=O)[C@H](C)NC(=O)[C@H](C)NC(=O)[C@H](CCCNC(=N)N)NC(=O)[C@H](CCCCNC(=O)CNC(=O)CNC(=O)[C@H](CO)NC(=O)CNC(=O)[C@H](CO)NC(=O)CNC(=O)CC[C@H](NC(=O)CCCCCCCCCCCCCCCCC(=O)O)C(=O)O)NC(=O)[C@H](CC(=O)O)NC(=O)[C@H](CC(C)C)NC(=O)[C@H](Cc1ccc(O)cc1)NC(=O)[C@H](CCCCN)NC(=O)[C@H](CO)NC(=O)[C@H](Cc1ccc(O)cc1)NC(=O)[C@H](CC(=O)O)NC(=O)[C@H](CO)NC(=O)[C@@H](NC(=O)[C@H](Cc1ccccc1)NC(=O)[C@@H](NC(=O)CNC(=O)[C@H](CCC(N)=O)NC(=O)C1(NC(=O)[C@@H](N)Cc2c[nH]cn2)CCC1)[C@@H](C)O)[C@@H](C)O)C(=O)N[C@@H](CCC(=O)O)C(=O)N[C@@H](Cc1c[nH]c2ccccc12)C(=O)N[C@@H](CC(C)C)C(=O)N[C@@H](CCC(=O)O)C(=O)N[C@@H](CO)C(=O)N[C@@H](C)C(N)=O [Compound 7, H-H-Ac4c-QGTFTSDYSKYLD-K([17-carboxy-heptadecanoyl]-isoGlu-GSGSGG)-RAAKDFIEWLESA-NH2]
